Data: ChEMBL document CHEMBL5316331, “Modulating Cytotoxicity with Lego-like Chemistry: Upgrading Mitochondriotropic Antioxidants with Prototypical Cationic Carrier Bricks” (J Med Chem, 2023)
Calls of active or inactive are those of the source. The rule behind the calls is not given here.

Legend:
[1] = test system: SH-SY5Y; assay: Antioxidant activity against human SH-SY5Y cells assessed as increase in basal respiration at 10 uM incubated for 24 hrs followed by addition of oligomycin/FCCP/antimycin A /rotenone by Cell Mito stress assay based seahorse XF96 flux analyzer; format: functional
[2] = test system: SH-SY5Y; assay: Neuroprotective activity against H2O2-induced human SH-SY5Y cells assessed as increase in cell viability at 50 uM preincubated for 30 mins followed by H2O2 addition and measured after 24 hrs by SRB assay; format: functional, cell-based; conditions: time 24.5 hrs
[3] = test system: SH-SY5Y; assay: Antioxidant activity against human SH-SY5Y cells assessed as increase in maximal respiration at 50 uM incubated for 24 hrs followed by addition of oligomycin/FCCP/antimycin A /rotenone by Cell Mito stress assay based seahorse XF96 flux analyzer; format: functional
[4] = test system: SH-SY5Y; assay: Antioxidant activity against human SH-SY5Y cells assessed as increase in ATP production-linked respiration at 50 uM incubated for 24 hrs followed by addition of oligomycin/FCCP/antimycin A /rotenone by Cell Mito stress assay based seahorse XF96 flux analyzer; format: functional
[5] = test system: SH-SY5Y; assay: Antioxidant activity against human SH-SY5Y cells assessed as increase in ATP production-linked respiration at 10 uM incubated for 24 hrs followed by addition of oligomycin/FCCP/antimycin A /rotenone by Cell Mito stress assay based seahorse XF96 flux analyzer; format: functional
[6] = test system: SH-SY5Y; assay: Antioxidant activity against human SH-SY5Y cells assessed as increase in spare respiratory capacity at 10 uM incubated for 24 hrs followed by addition of oligomycin/FCCP/antimycin A /rotenone by Cell Mito stress assay based seahorse XF96 flux analyzer; format: functional
[7] = test system: SH-SY5Y; assay: Antioxidant activity against human SH-SY5Y cells assessed as increase in basal ECAR at 10 uM incubated for 24 hrs followed by addition of oligomycin/FCCP/antimycin A /rotenone by Cell Mito stress assay based seahorse XF96 flux analyzer; format: functional
[8] = test system: SH-SY5Y; assay: Antioxidant activity against human SH-SY5Y cells assessed as increase in maximal respiration at 10 uM incubated for 24 hrs followed by addition of oligomycin/FCCP/antimycin A /rotenone by Cell Mito stress assay based seahorse XF96 flux analyzer; format: functional
[9] = test system: SH-SY5Y; assay: Neuroprotective activity against H2O2-induced human SH-SY5Y cells assessed as increase in cell viability at 10 uM preincubated for 30 mins followed by H2O2 addition and measured after 24 hrs by SRB assay; format: functional, cell-based; conditions: time 24.5 hrs
[10] = Cytotoxicity against human HepG2 cells assessed as cell viability incubated for 24 hrs; format: toxicity, cell-based; conditions: read-out: Activity
[11] = test system: HepG2; assay: Cytotoxicity against human HepG2 cells assessed as increase in cell viability at 10 to 100 uM incubated for 24 hrs; format: toxicity, cell-based; conditions: hepg2, 24 h, dose 10-100 µM
[12] = Drug uptake in C57BL/6J mouse liver mitochondria at 5 uM in presence of FCCP by UPLC analysis; format: ADME
[13] = test system: SH-SY5Y; assay: Cytotoxicity against human SH-SY5Y cells assessed as increase in cell viability at 10 to 100 uM incubated for 24 hrs; format: toxicity, cell-based; conditions: dose 10-100 µM
[14] = Drug uptake in C57BL/6J mouse liver mitochondria at 5 uM in presence of rotenone by UPLC analysis; format: ADME
[15] = test system: SH-SY5Y; assay: Cytotoxicity against human SH-SY5Y cells incubated for 48 hrs; format: toxicity, cell-based
[16] = test system: SH-SY5Y; assay: Antioxidant activity against human SH-SY5Y cells assessed as increase in basal respiration at 50 uM incubated for 24 hrs followed by addition of oligomycin/FCCP/antimycin A /rotenone by Cell Mito stress assay based seahorse XF96 flux analyzer; format: functional
[17] = test system: SH-SY5Y; assay: Antioxidant activity against human SH-SY5Y cells assessed as increase in spare respiratory capacity at 50 uM incubated for 24 hrs followed by addition of oligomycin/FCCP/antimycin A /rotenone by Cell Mito stress assay based seahorse XF96 flux analyzer; format: functional
[18] = test system: SH-SY5Y; assay: Antioxidant activity against human SH-SY5Y cells assessed as increase in basal OCR at 10 uM incubated for 24 hrs followed by addition of oligomycin/FCCP/antimycin A /rotenone by Cell Mito stress assay based seahorse XF96 flux analyzer; format: functional
[19] = Drug uptake in C57BL/6J mouse liver mitochondria at 5 uM in presence of succinate by UPLC analysis; format: ADME
[20] = Cytotoxicity against human SH-SY5Y cells assessed as cell viability incubated for 24 hrs; format: toxicity, cell-based; conditions: read-out: Activity
[21] = test system: SH-SY5Y; assay: Cytotoxicity against human SH-SY5Y cells assessed as decrease in cell mass at > 25 uM incubated for 24 hrs by SRB assay; format: toxicity, cell-based
[22] = test system: SH-SY5Y; assay: Effect on cell morphology in human SH-SY5Y cells assessed as reduction in cell body at 50 uM incubated for 24 hrs by Phase-contrast microscopy; format: functional, cell-based
[23] = test system: SH-SY5Y; assay: Effect on cell death pathway in human SH-SY5Y cells assessed as increase in necrotic cells at 50 uM incubated for 24 hrs by Annexin V-FITC/PI staining based microscopy; format: functional
[24] = test system: SH-SY5Y; assay: Effect on cell morphology in human SH-SY5Y cells assessed as reduction in neurite at 10 uM incubated for 24 hrs by Phase-contrast microscopy; format: functional, cell-based
[25] = test system: HepG2; assay: Cytotoxicity against human HepG2 cells assessed as decrease in cellular metabolic activity at > 3.1 uM incubated for 24 hrs by resazurin reduction assay; format: toxicity, cell-based; conditions: hepg2, 24 h
[26] = test system: HepG2; assay: Cytotoxicity against human HepG2 cells assessed as decrease in lysosomal activity at > 10 uM incubated for 24 hrs by resazurin reduction assay; format: toxicity, cell-based; conditions: hepg2, 24 h
[27] = test system: SH-SY5Y; assay: Effect on cell death pathway in human SH-SY5Y cells assessed as increase in late apoptotic cells at 10 uM incubated for 24 hrs by Annexin V-FITC/PI staining based microscopy; format: functional
[28] = test system: SH-SY5Y; assay: Cytotoxicity against human SH-SY5Y cells assessed as decrease in lysosomal activity at 1 to 100 uM incubated upto 48 hrs by resazurin reduction assay; format: toxicity, cell-based; conditions: dose 1-100 µM
[29] = test system: SH-SY5Y; assay: Cytotoxicity against human SH-SY5Y cells assessed as decrease in cellular metabolic activity at 1 to 100 uM incubated upto 48 hrs by resazurin reduction assay; format: toxicity, cell-based; conditions: dose 1-100 µM
[30] = test system: SH-SY5Y; assay: Effect on cell death pathway in human SH-SY5Y cells assessed as increase in necrotic cells at 10 uM incubated for 24 hrs by Annexin V-FITC/PI staining based microscopy; format: functional
[31] = test system: HepG2; assay: Cytotoxicity against human HepG2 cells assessed as decrease in cell mass at > 6.25 uM incubated for 24 hrs by SRB assay; format: toxicity, cell-based; conditions: hepg2, 24 h
[32] = test system: SH-SY5Y; assay: Cytotoxicity against human SH-SY5Y cells assessed as decrease in lysosomal activity at > 50 uM incubated for 24 hrs by neutral red uptake assay; format: toxicity, cell-based
[33] = test system: SH-SY5Y; assay: Effect on cell death pathway in human SH-SY5Y cells assessed as increase in late apoptotic cells at 50 uM incubated for 24 hrs by Annexin V-FITC/PI staining based microscopy; format: functional
[34] = test system: SH-SY5Y; assay: Effect on cell morphology in human SH-SY5Y cells assessed as reduction in neurite at 50 uM incubated for 24 hrs by Phase-contrast microscopy; format: functional, cell-based
[35] = test system: SH-SY5Y; assay: Effect on cell death pathway in human SH-SY5Y cells assessed as increase in early apoptotic cells at 10 uM incubated for 24 hrs by Annexin V-FITC/PI staining based microscopy; format: functional
[36] = test system: SH-SY5Y; assay: Cytotoxicity against human SH-SY5Y cells assessed as decrease in lysosomal activity at > 25 uM incubated for 24 hrs by neutral red uptake assay; format: toxicity, cell-based
[37] = test system: SH-SY5Y; assay: Neuroprotective activity against tBHP-induced human SH-SY5Y cells assessed as increase in cell viability at 10 uM preincubated for 30 mins followed by t-BHP addition at 15 uM and measured after 24 hrs by neutral dye uptake assay relative to control; format: functional; conditions: time 24.5 hrs
[38] = test system: SH-SY5Y; assay: Induction of mitochondrial membrane polarization in human SH-SY5Y cells at 50 uM incubated for 24 hrs by JC-1 staining based fluorescence assay; format: functional
[39] = test system: SH-SY5Y; assay: Effect on cell morphology in human SH-SY5Y cells assessed as reduction in cell body at 10 uM incubated for 24 hrs by Phase-contrast microscopy; format: functional, cell-based
[40] = test system: SH-SY5Y; assay: Effect on cell mitochondrial mass in human SH-SY5Y cells assessed as reduction on mitochondrial mass at 10 uM incubated for 24 hrs by mito-tracker green dye based flow cytometry; format: functional; parameters: scale not given: the % may be the effect or the level left
[41] = test system: SH-SY5Y; assay: Neuroprotective activity against tBHP-induced human SH-SY5Y cells assessed as increase in cell viability at 10 uM preincubated for 30 mins followed by t-BHP addition at 30 uM and measured after 24 hrs by neutral dye uptake assay relative to control; format: functional; conditions: time 24.5 hrs
[42] = test system: HepG2; assay: Cytotoxicity against human HepG2 cells assessed as decrease in cellular metabolic activity at > 10 uM incubated for 24 hrs by resazurin reduction assay; format: toxicity, cell-based; conditions: hepg2, 24 h
[43] = test system: SH-SY5Y; assay: Induction of mitochondrial membrane polarization in human SH-SY5Y cells at 10 uM incubated for 24 hrs by JC-1 staining based fluorescence assay; format: functional
[44] = test system: HepG2; assay: Cytotoxicity against human HepG2 cells assessed as decrease in lysosomal activity at > 3.1 uM incubated for 24 hrs by resazurin reduction assay; format: toxicity, cell-based; conditions: hepg2, 24 h
[45] = test system: SH-SY5Y; assay: Neuroprotective activity against tBHP-induced human SH-SY5Y cells assessed as increase in cell viability at 10 uM preincubated for 30 mins followed by t-BHP addition and measured after 24 hrs by SRB assay; format: functional, cell-based; conditions: time 24.5 hrs
[46] = test system: SH-SY5Y; assay: Antioxidant activity against human SH-SY5Y cells assessed as increase in ECAR at 10 uM incubated for 24 hrs followed by addition of oligomycin/FCCP/antimycin A /rotenone by Cell Mito stress assay based seahorse XF96 flux analyzer; format: functional
[47] = Dissociation constant, pKa of the compound by UV-vis spectrophotometric analysis; format: physicochemical
[48] = test system: SH-SY5Y; assay: Antioxidant activity against human SH-SY5Y cells assessed as increase in proton leak-associated respiration at 10 uM incubated for 24 hrs followed by addition of oligomycin/FCCP/antimycin A /rotenone by Cell Mito stress assay based seahorse XF96 flux analyzer; format: functional
[49] = test system: SH-SY5Y; assay: Antioxidant activity against human SH-SY5Y cells assessed as effect on ATP production-linked respiration at 10 uM incubated for 24 hrs followed by addition of oligomycin/FCCP/antimycin A /rotenone by Cell Mito stress assay based seahorse XF96 flux analyzer; format: functional
[50] = test system: SH-SY5Y; assay: Effect on cell death pathway in human SH-SY5Y cells assessed as increase in early apoptotic cells at 50 uM incubated for 24 hrs by Annexin V-FITC/PI staining based microscopy; format: functional
[51] = test system: SH-SY5Y; assay: Antioxidant activity against human SH-SY5Y cells assessed as effect on intracellular ATP level at 10 uM incubated for 24 hrs followed by addition of oligomycin/FCCP/antimycin A /rotenone by Cell Mito stress assay based seahorse XF96 flux analyzer; format: functional

For `CS(=O)(=O)[O-].Cc1cc[n+](CCCCCCCCCCNC(=O)/C=C/c2ccc(O)c(O)c2)cc1`, the Activity [1] was “Active”, the Activity [2] was “inactive” and the Activity [3] was “Active”. The Activity [4] was “Active”, the Activity [5] was “Active” and the Activity [6] was “Active”. The Activity [7] was “Active”, the Activity [8] was “Active” and the Activity [9] was “inactive”. For the same compound, the viability at 24 h [10] was no less than 85%, the Activity [11] was “Non-Toxic” and the Drug uptake [12] was “Active”. The Activity [13] was “Non-Toxic”, the Drug uptake [14] was “Not Active” and the Activity [15] was “Non-Toxic”. For the same compound, the Activity [16] was “Active”, the Activity [17] was “Active” and the Activity [18] was “Active”. The Drug uptake [19] was ~ 25% and the viability at 24 h [20] was no less than 85%.

With `CS(=O)(=O)[O-].O=C(/C=C/c1ccc(O)c(O)c1)NCCCCCCCCCC[P+](c1ccccc1)(c1ccccc1)c1ccccc1` the Activity [21] was “Toxic”, the Activity [22] was “Active” and the Activity [23] was “Active”. For the same compound, the Activity [24] was “Active”, the Activity [25] was “Toxic” and the Activity [26] was “Toxic”. For the same compound, the Activity [27] was “Active”, the Activity [28] was “Toxic” and the Activity [29] was “Toxic”. The Activity [30] was “Active”, the Activity [31] was “Toxic” and the Activity [32] was “Toxic”. The Activity [33] was “Active”, the Activity [34] was “Active” and the Activity [9] was “inactive”. For the same compound, the Activity [35] was “Active”, the Activity [36] was “Toxic” and the Drug uptake [12] was “Active”. For the same compound, the Activity [37] was 95.1%, the Activity [38] was 72.7% and the Activity [39] was “Active”. The Drug uptake [14] was “Not Active”, the Activity [40] was 69.2% and the Activity [41] was 54.9%. For the same compound, the Activity [42] was “Toxic”, the Activity [43] was 124.8% and the Activity [44] was “Toxic”. For the same compound, the Activity [45] was “Active”, the Activity [46] was “Active” and the Drug uptake [19] was ~ 25%. For the same compound, the pKa [47] was 8.61, the Activity [48] was “Active” and the Activity [49] was “inactive”. The Activity [50] was “Active” and the Activity [51] was “inactive”.
